Measurements: patent publication US20230101273A1, “MESOIONIC INSECTICIDES” (FMC Corporation, priority 2020, published 2023)
Counter-ions that a name gives are not always drawn.

Assays:
[1] = system: cotton melon aphid (Aphis gossypii (Glover)); test: Test F: control of cotton melon aphid through contact and/or systemic means; format: in vivo; conditions: 144 h, sprayed at 50 ppm, 6 days, okra plant
Description: (§1) Test compounds were formulated using a solution containing 10% acetone, 90% water and 300 ppm Activator 900 non-ionic surfactant (Loveland Products, Loveland, Colo., USA). The formulated compounds were applied in 1 mL of liquid through an atomizer nozzle positioned 1.27 cm (0.5 inches) above the top of each test unit. Test compounds were sprayed at the rates indicated, and each test was replicated three times.
[…] This was pre-infested with 30-40 insects on a piece of leaf according to the cut-leaf method, and the soil of the test unit was covered with a layer of sand.
Test compounds were formulated and sprayed at 50 ppm. After spraying, the test units were maintained in a growth chamber for 6 days at 19° C. and 70% relative humidity. Each test unit was then visually assessed for insect mortality.

[2] = system: green peach aphid (Myzus persicae (Sulzer)); test: Test E: control of green peach aphid through contact and/or systemic means; format: in vivo; conditions: 144 h, sprayed at 50 ppm, 6 days, radish plant
Description: as §1
For evaluating control of green peach aphid (Myzus persicae (Sulzer)) through contact and/or systemic means, the test unit consisted of a small open container with a 12-15-day-old radish plant inside. This was pre-infested by placing on a leaf of the test plant 30-40 aphids on a piece of leaf excised from a culture plant (cut-leaf method). The aphids moved onto the test plant as the leaf piece desiccated. After pre-infestation, the soil of the test unit was covered with a layer of sand.
Test compounds were formulated and sprayed at 50 ppm. After spraying of the formulated test compound, each test unit was allowed to dry for 1 hour and then a black, screened cap was placed on top. The test units were held for 6 days in a growth chamber at 19-21° C. and 50-70% relative humidity. Each test unit was then visually assessed for insect mortality.

[3] = system: corn planthopper (Peregrinus maidis (Ashmead)); test: Test C: control of corn planthopper through contact and/or systemic means; format: in vivo; conditions: 144 h, sprayed at 50 ppm, 6 days, nymphs on corn plant
Description: as §1
For evaluating control of corn planthopper (Peregrinus maidis (Ashmead)) through contact and/or systemic means, the test unit consisted of a small open container with a 3-4-day-old corn (maize) plant inside. White sand was added to the top of the soil prior to application of the test compound.
(§2) Test compounds were formulated and sprayed at 50 ppm. After spraying of the formulated test compound, the test units were allowed to dry for 1 h before they were post-infested with ˜15-20 nymphs (18-to-21-day-old). A black, screened cap was placed on the top of each test unit, and the test units were held for 6 days in a growth chamber at 22-24° C. and 50-70% relative humidity. Each test unit was then visually assessed for insect mortality.

[4] = system: potato leafhopper (Empoasca fabae (Harris)); test: Test D: control of potato leafhopper through contact and/or systemic means; format: in vivo; conditions: 144 h, sprayed at 50 ppm, 6 days, adults on Soleil bean plant
Description: as §1
For evaluating control of potato leafhopper (Empoasca fabae (Harris)) through contact and/or systemic means, the test unit consisted of a small open container with a 5-6-day-old Soleil bean plant (primary leaves emerged) inside. White sand was added to the top of the soil, and one of the primary leaves was excised prior to application of the test compound.
as §2, with “1 hour” for “1 h”, “with 5 potato leafhoppers (18-to-21-day-old adults).” for “with ˜15-20 nymphs (18-to-21-day-old).”, “of the” for “of each”, “at 20°” for “at 22-24°”, “and 70%” for “and 50-70%”

CCOc1cc(C#CC(C)C)cc(-c2c([O-])[n+](Cc3cnc(Cl)s3)c3c(C)cccn3c2=O)c1 (as salt: salt) [Compound 54, 1-[(2-chloro-5-thiazolyl)methyl]-3-[3-ethoxy-5-(3-methyl-1-butyn-1-yl)phenyl]-2-hydroxy-9-methyl-4-oxo-4H-pyrido[1,2-a]pyrimidinium inner salt]
melting point: 90 to 97 °C

CCC#Cc1cc(Cl)cc(-c2c([O-])[n+](Cc3cnc(Cl)s3)c3c(C)cccn3c2=O)c1 [Compound 1, 3-[3-(1-butyn-1-yl)-5-chlorophenyl]-1-[(2-chloro-5-thiazolyl)methyl]-2-hydroxy-9-methyl-4-oxo-4H-pyrido[1,2-a]pyrimidinium inner salt]
mortality at 50 ppm [1]: ≥ 80% | mortality at 50 ppm [2]: ≥ 80% | mortality at 50 ppm [3]: ≥ 80%

CCC#Cc1cccc(-c2c([O-])[n+](Cc3cnc(Cl)s3)c3c(C)cccn3c2=O)c1 [Compound 2, 3-[3-(1-butyn-1-yl)phenyl]-1-[(2-chloro-5-thiazolyl)methyl]-2-hydroxy-9-methyl-4-oxo-4H-pyrido[1,2-a]pyrimidinium inner salt]
mortality at 50 ppm [1]: ≥ 80% | mortality at 50 ppm [2]: ≥ 80% | mortality at 50 ppm [3]: ≥ 80%

COc1cc(C#CC2CC2)cc(-c2c([O-])[n+](Cc3cnc(Cl)s3)c3c(C)cccn3c2=O)c1 [Compound 4, 1-[(2-chloro-5-thiazolyl)methyl]-3-[3-(2-cyclopropylethynyl)-5-methoxyphenyl]-2-hydroxy-9-methyl-4-oxo-4H-pyrido[1,2-a]pyrimidinium inner salt]
mortality at 50 ppm [1]: ≥ 80% | mortality at 50 ppm [4]: ≥ 80% | mortality at 50 ppm [2]: ≥ 80% | mortality at 50 ppm [3]: ≥ 80%

Cc1cc(C#CC(C)C)cc(-c2c([O-])[n+](Cc3cnc(Cl)s3)c3c(C)cccn3c2=O)c1 [Compound 7, 1-[(2-chloro-5-thiazolyl)methyl]-2-hydroxy-9-methyl-3-[3-methyl-5-(3-methyl-1-butyn-1-yl)phenyl]-4-oxo-4H-pyrido[1,2-a]pyrimidinium inner salt]
mortality at 50 ppm [1]: ≥ 80% | mortality at 50 ppm [4]: ≥ 80% | mortality at 50 ppm [2]: ≥ 80% | mortality at 50 ppm [3]: ≥ 80%

Cc1cc(C#CC2CC2)cc(-c2c([O-])[n+](Cc3cnc(Cl)s3)c3c(C)cccn3c2=O)c1 [Compound 11, 1-[(2-chloro-5-thiazolyl)methyl]-3-[3-(2-cyclopropylethynyl)-5-methylphenyl]-2-hydroxy-9-methyl-4-oxo-4H-pyrido[1,2-a]pyrimidinium inner salt]
mortality at 50 ppm [1]: ≥ 80% | mortality at 50 ppm [4]: ≥ 80% | mortality at 50 ppm [2]: ≥ 80% | mortality at 50 ppm [3]: ≥ 80%

Cc1cccn2c(=O)c(-c3cc(C#CC4CC4)cc(C(C)C)c3)c([O-])[n+](Cc3cnc(Cl)s3)c12 [Compound 14]
mortality at 50 ppm [1]: ≥ 80% | mortality at 50 ppm [2]: ≥ 80%

COc1cc(C#CC(C)C)cc(-c2c([O-])[n+](Cc3cnc(Cl)s3)c3c(C)cccn3c2=O)c1 [Compound 18]
mortality at 50 ppm [1]: ≥ 80% | mortality at 50 ppm [2]: ≥ 80%

Cc1cccn2c(=O)c(-c3cc(F)cc(C#CC(C)C)c3)c([O-])[n+](Cc3cnc(Cl)s3)c12 [Compound 21]
mortality at 50 ppm [1]: ≥ 80% | mortality at 50 ppm [4]: ≥ 80% | mortality at 50 ppm [2]: ≥ 80%

Cc1cccn2c(=O)c(-c3cc(C#CC(C)C)cc(C(F)(F)F)c3)c([O-])[n+](Cc3cnc(Cl)s3)c12 [Compound 26]
mortality at 50 ppm [4]: ≥ 80%

Cc1cccn2c(=O)c(-c3cc(F)cc(C#CC4CC4)c3)c([O-])[n+](Cc3cnc(Cl)s3)c12 [Compound 29]
mortality at 50 ppm [2]: ≥ 80%

Cc1cccn2c(=O)c(-c3cc(Cl)cc(C#CC4CC4)c3)c([O-])[n+](Cc3cnc(Cl)s3)c12 [Compound 35]
mortality at 50 ppm [1]: ≥ 80% | mortality at 50 ppm [2]: ≥ 80%

Cc1cccn2c(=O)c(-c3cccc(C#CC4CC4)c3)c([O-])[n+](Cc3cnc(Cl)s3)c12 [Compound 37, 1-[(2-chloro-5-thiazolyl)methyl]-3-[3-(2-cyclopropylethynyl)phenyl]-2-hydroxy-9-methyl-4-oxo-4H-pyrido[1,2-a]pyrimidinium inner salt]
mortality at 50 ppm [1]: ≥ 80% | mortality at 50 ppm [4]: ≥ 80% | mortality at 50 ppm [2]: ≥ 80% | mortality at 50 ppm [3]: ≥ 80%

Cc1cccn2c(=O)c(-c3cccc(C#CC(C)C)c3)c([O-])[n+](Cc3cnc(Cl)s3)c12 [Compound 44, 1-[(2-chloro-5-thiazolyl)methyl]-2-hydroxy-9-methyl-3-[3-(3-methyl-1-butyn-1-yl)phenyl]-4-oxo-4H-pyrido[1,2-a]pyrimidinium inner salt]
mortality at 50 ppm [1]: ≥ 80% | mortality at 50 ppm [4]: ≥ 80% | mortality at 50 ppm [2]: ≥ 80% | mortality at 50 ppm [3]: ≥ 80%

Cc1cccn2c(=O)c(-c3cc(Cl)cc(C#Cc4ccccc4)c3)c([O-])[n+](Cc3cnc(Cl)s3)c12 [Compound 47]
mortality at 50 ppm [1]: ≥ 80% | mortality at 50 ppm [4]: ≥ 80%

CCOc1cc(C#CC2CC2)cc(-c2c([O-])[n+](Cc3cnc(Cl)s3)c3c(C)cccn3c2=O)c1 [Compound 51, 1-[(2-chloro-5-thiazolyl)methyl]-3-[3-(2-cyclopropylethynyl)-5-ethoxyphenyl]-2-hydroxy-9-methyl-4-oxo-4H-pyrido[1,2-a]pyrimidinium inner salt]
mortality at 50 ppm [1]: ≥ 80% | mortality at 50 ppm [2]: ≥ 80% | mortality at 50 ppm [3]: ≥ 80%

CC#Cc1cccc(-c2c([O-])[n+](Cc3cnc(Cl)s3)c3c(C)cccn3c2=O)c1 [Compound 61]
mortality at 50 ppm [1]: ≥ 80% | mortality at 50 ppm [4]: ≥ 80% | mortality at 50 ppm [3]: ≥ 80%

Cc1ccc(-c2c([O-])[n+](Cc3cnc(Cl)s3)c3c(C)cccn3c2=O)cc1C#CC(C)C [Compound 86]
mortality at 50 ppm [1]: ≥ 80% | mortality at 50 ppm [4]: ≥ 80% | mortality at 50 ppm [2]: ≥ 80% | mortality at 50 ppm [3]: ≥ 80%
